Measurements: patent US4755610A, “Hapalindoles” (priority 1986, dated 1988)
≈ marks a conversion by molar mass, not a printed value. Like-named read-outs stand apart in the source and are kept apart here.

Tests used:
Format in all cases: cell-based
Escherichia coli N10 = assay: In vitro antibacterial activity, standard agar-dilution assay
[1] = test system: Streptococcus sp group D 2041; assay: as above; settings: GROUPD2041
[2] = test system: Haemophilus influenzae 76; assay: as above
[3] = test system: Klebsiella pneumoniae X68; assay: as above
Proteus morganii PR15 = assay: as above; settings: Morganella morganii
[4] = test system: Staphylococcus epidermidis 222; assay: as above
[5] = test system: Acinetobacter calcoaceticus AC12; assay: as above
[6] = test system: Staphylococcus aureus V41; assay: as above
Escherichia coli TEM = assay: as above
Escherichia coli EC14 = assay: as above
Shigella sonnei N9 = assay: as above
Salmonella sp. X514 = assay: as above
[7] = test system: Staphylococcus epidermidis EPI1; assay: as above
[8] = test system: Klebsiella pneumoniae KAE; assay: as above
[9] = test system: Staphylococcus aureus S13E; assay: microbe, parasite or virus in culture
[10] = test system: Staphylococcus aureus X1.1; assay: In vitro antibacterial activity, standard agar-dilution assay
[11] = test system: Haemophilus influenzae C.L.; assay: as above
[12] = test system: Streptococcus faecium ATCC 9790; assay: as above; settings: Enterococcus faecium, ATCC9790
[13] = test system: Staphylococcus aureus X400; assay: microbe, parasite or virus in culture
[14] = test system: Streptococcus pneumoniae Park 1; assay: In vitro antibacterial activity, standard agar-dilution assay; settings: PARK1
[15] = test system: Trichophyton mentagrophytes; assay: In vitro antifungal activity, standard disc-plate assay
[16] = test system: Streptococcus pyogenes C203; assay: In vitro antibacterial activity, standard agar-dilution assay
[17] = test system: Klebsiella pneumoniae X26; assay: as above
Candida albicans = assay: In vitro antifungal activity, standard disc-plate assay
[18] = Escherichia coli N10, agar dilution, read-out: MIC
[19] = Streptococcus sp group D 2041, agar dilution, read-out: MIC
[20] = Haemophilus influenzae 76, agar dilution, read-out: MIC
[21] = Klebsiella pneumoniae X68, agar dilution, read-out: MIC
[22] = Proteus morganii PR15, agar dilution, read-out: MIC
[23] = Staphylococcus epidermidis 222, agar dilution, read-out: MIC
[24] = Acinetobacter calcoaceticus AC12, agar dilution, read-out: MIC
[25] = Staphylococcus aureus V41, agar dilution, read-out: MIC
[26] = Escherichia coli EC14, agar dilution, read-out: MIC
[27] = Shigella sonnei N9, agar dilution, read-out: MIC
[28] = Salmonella sp. X514, agar dilution, read-out: MIC
[29] = Staphylococcus epidermidis EPI1, agar dilution, read-out: MIC
[30] = Klebsiella pneumoniae KAE, agar dilution, read-out: MIC
[31] = Staphylococcus aureus X1.1, agar dilution, read-out: MIC
[32] = Haemophilus influenzae C.L., agar dilution, read-out: MIC
[33] = Streptococcus faecium ATCC 9790, agar dilution, read-out: MIC
[34] = Streptococcus pneumoniae Park 1, agar dilution, read-out: MIC
[35] = disc-plate assay, read-out: MIC
[36] = Streptococcus pyogenes C203, agar dilution, read-out: MIC
[37] = Klebsiella pneumoniae X26, agar dilution, read-out: MIC

For `[C-]#[N+][C@@H]1[C@H]2c3c[nH]c4cccc(c34)C(C)(C)[C@@H]2CC[C@]1(C)C=C` [Compound 8, Hapalindole H], the MIC (Escherichia coli N10; [18]) was greater than 64 µg/mL, the MIC [1, 19] was greater than 64 µg/mL and the MIC [2, 20] was greater than 64 µg/mL. For the same compound, the MIC [3, 21] was greater than 64 µg/mL, the MIC (Proteus morganii PR15; [22]) was greater than 64 µg/mL and the MIC [4, 23] was 32 µg/mL (≈ 105 µM). The MIC [5, 24] was 16 µg/mL (≈ 52.6 µM), the MIC [6, 25] was greater than 64 µg/mL and the MIC (Escherichia coli TEM) was greater than 64 µg/mL. For the same compound, the MIC (Escherichia coli EC14; [26]) was greater than 64 µg/mL, the MIC (Shigella sonnei N9; [27]) was greater than 64 µg/mL and the MIC (Salmonella sp. X514; [28]) was greater than 64 µg/mL. The MIC [7, 29] was 32 µg/mL (≈ 105 µM), the MIC [8, 30] was greater than 64 µg/mL and the MIC [9] was greater than 64 µg/mL. It also gave an MIC [10, 31] greater than 64 µg/mL, an MIC [11, 32] greater than 64 µg/mL and an MIC [12, 33] greater than 64 µg/mL. The MIC [13] was greater than 64 µg/mL, the MIC [14, 34] was 32 µg/mL (≈ 105 µM) and the MIC [15, 35] was 1.25 µg/mL (≈ 4.11 µM). It also gave an MIC [16, 36] of 32 µg/mL (≈ 105 µM), an MIC [17, 37] greater than 64 µg/mL and an MIC (Candida albicans; [35]) of 10 µg/mL (≈ 32.8 µM).
`[C-]#[N+][C@@H]1[C@H](c2c[nH]c3ccccc23)[C@@H](C(=C)C)C[C@@H](Cl)[C@]1(C)C=C` [Compound 5, Hapalindole E] gave an MIC (Escherichia coli N10; Escherichia coli, N10) of 16 µg/mL (≈ 47.2 µM), an MIC ([1]; Streptococcus) greater than 64 µg/mL and an MIC ([2]; Haemophilus influenzae, 76) of 4 µg/mL (≈ 11.8 µM). For the same compound, the MIC ([3]; Klebsiella pneumoniae, X68) was greater than 64 µg/mL, the MIC (Proteus morganii PR15; PR15) was 32 µg/mL (≈ 94.4 µM) and the MIC ([4]; Staphylococcus epidermidis, 222) was 2 µg/mL (≈ 5.9 µM). It also gave an MIC ([5]; Acinetobacter calcoaceticus, AC12) greater than 64 µg/mL, an MIC ([6]; Staphylococcus aureus, V41) of 2 µg/mL (≈ 5.9 µM) and an MIC (Escherichia coli TEM) greater than 64 µg/mL. The MIC (Escherichia coli EC14; Escherichia coli, EC14) was 16 µg/mL (≈ 47.2 µM), the MIC (Shigella sonnei N9; Shigella sonnei, N9) was greater than 64 µg/mL and the MIC (Salmonella sp. X514; Salmonella, SP.X514) was greater than 64 µg/mL. For the same compound, the MIC ([7]; Staphylococcus epidermidis, EPI1) was 2 µg/mL (≈ 5.9 µM), the MIC ([8]; Klebsiella pneumoniae) was greater than 64 µg/mL and the MIC [9] was 2 µg/mL (≈ 5.9 µM). For the same compound, the MIC ([10]; Staphylococcus aureus, X1.1) was 4 µg/mL (≈ 11.8 µM), the MIC ([11]; Haemophilus influenzae) was 4 µg/mL (≈ 11.8 µM) and the MIC [12] was 64 µg/mL (≈ 189 µM). For the same compound, the MIC [13] was 4 µg/mL (≈ 11.8 µM), the MIC ([14]; Streptococcus pneumoniae) was greater than 64 µg/mL and the MIC [15] was 0.625 µg/mL (≈ 1.84 µM). For the same compound, the MIC ([16]; Streptococcus pyogenes, C203) was greater than 64 µg/mL, the MIC ([17]; Klebsiella pneumoniae, X26) was greater than 64 µg/mL and the MIC (Candida albicans) was 0.312 µg/mL (≈ 0.921 µM).
`C=C[C@@]1(C)[C@H](Cl)C[C@H](C(=C)C)[C@@H](c2c[nH]c3ccccc23)[C@H]1N=C=S` [Compound 6, Hapalindole F] gave an MIC (Escherichia coli N10; [18]) greater than 64 µg/mL, an MIC [1, 19] of 16 µg/mL (≈ 43.1 µM) and an MIC [2, 20] greater than 64 µg/mL. It also gave an MIC [3, 21] greater than 64 µg/mL, an MIC (Proteus morganii PR15; [22]) greater than 64 µg/mL and an MIC [4, 23] of 4 µg/mL (≈ 10.8 µM). It also gave an MIC [5, 24] greater than 64 µg/mL, an MIC [6, 25] greater than 64 µg/mL and an MIC (Escherichia coli TEM) greater than 64 µg/mL. For the same compound, the MIC (Escherichia coli EC14; [26]) was greater than 64 µg/mL, the MIC (Shigella sonnei N9; [27]) was greater than 64 µg/mL and the MIC (Salmonella sp. X514; [28]) was greater than 64 µg/mL. The MIC [7, 29] was 4 µg/mL (≈ 10.8 µM), the MIC [8, 30] was greater than 64 µg/mL and the MIC [9] was 32 µg/mL (≈ 86.3 µM). The MIC [10, 31] was 16 µg/mL (≈ 43.1 µM), the MIC [11, 32] was greater than 64 µg/mL and the MIC [12, 33] was 64 µg/mL (≈ 173 µM). For the same compound, the MIC [13] was 32 µg/mL (≈ 86.3 µM), the MIC [14, 34] was greater than 64 µg/mL and the MIC [15, 35] was greater than 20 µg/mL. For the same compound, the MIC [16, 36] was greater than 64 µg/mL, the MIC [17, 37] was greater than 64 µg/mL and the MIC (Candida albicans; [35]) was greater than 20 µg/mL.
For `[C-]#[N+][C@@H]1[C@@H]2c3c[nH]c4cccc(c34)C(C)(C)[C@H]2C[C@@H](Cl)[C@]1(C)C=C` [Compound 7, Hapalindole G], the MIC (Escherichia coli N10; [18]) was greater than 64 µg/mL, the MIC [1, 19] was greater than 64 µg/mL and the MIC [2, 20] was 64 µg/mL (≈ 189 µM). For the same compound, the MIC [3, 21] was greater than 64 µg/mL, the MIC (Proteus morganii PR15; [22]) was greater than 64 µg/mL and the MIC [4, 23] was 16 µg/mL (≈ 47.2 µM). The MIC [5, 24] was 16 µg/mL (≈ 47.2 µM), the MIC [6, 25] was 64 µg/mL (≈ 189 µM) and the MIC (Escherichia coli TEM) was greater than 64 µg/mL. For the same compound, the MIC (Escherichia coli EC14; [26]) was greater than 64 µg/mL, the MIC (Shigella sonnei N9; [27]) was greater than 64 µg/mL and the MIC (Salmonella sp. X514; [28]) was greater than 64 µg/mL. The MIC [7, 29] was 8 µg/mL (≈ 23.6 µM), the MIC [8, 30] was greater than 64 µg/mL and the MIC [9] was 64 µg/mL (≈ 189 µM). The MIC [10, 31] was 64 µg/mL (≈ 189 µM), the MIC [11, 32] was 64 µg/mL (≈ 189 µM) and the MIC [12, 33] was greater than 64 µg/mL. The MIC [13] was 64 µg/mL (≈ 189 µM), the MIC [14, 34] was 16 µg/mL (≈ 47.2 µM) and the MIC [15, 35] was 2.5 µg/mL (≈ 7.38 µM). It also gave an MIC [16, 36] of 16 µg/mL (≈ 47.2 µM), an MIC [17, 37] of 64 µg/mL (≈ 189 µM) and an MIC (Candida albicans; [35]) of 10 µg/mL (≈ 29.5 µM).
